Assay results: US20240262826A1, “WILD TYPE KIT INHIBITORS” (Blueprint Medicines Corporation, priority 2022, published 2024)

Molecular target: wild type c-kit (Homo sapiens (Human), UniProt P10721)
Assay: PathScan phospho c-kit (Tyr719) sandwich ELISA in SCF-stimulated M-07e cells (pKIT assay)
Assay type: cell-based
Settings: ELISA assay (values not marked *)
Description: The ability of compounds of the disclosure (described herein as test compounds) to inhibit autophosphorylation of wild type c-kit was measures using either a PathScan phospho c-kit (Tyr719) sandwich ELISA (CST #7298) or a Phospho c-Kit (Tyr721) Assay Whole Cell Lysate Kit (MSD: 515DPD/catalog number K15119D-2).
For the PathScan phospho c-kit (Tyr719) sandwich ELISA: M-07e cells were resuspended at 2×10^6 cells/mL in phenol red free, serum-free, GM-CSF-free Iscove's Modified Dulbecco's Medium (IMDM) media with 1% Penicillin-Streptomycin. The cells were then dispensed into the wells of a U-bottom, 96-well plate at 50 uL per well using a multichannel pipet. The plate was allowed to incubate at 37° C. in a humidified tissue culture incubator for 4 hours.
After 4 hours of incubation, each well was dosed with 6.25 uL of test compound at a final DMSO concentration of 0.25% for 60 min at 37° C. to generate an 8-point dose concentration series of test compounds in duplicate. Cells were then incubated for 1 hour at 37° C. in a humidified tissue culture incubator. Next, human SCF at 500 ng/mL was added to the appropriate wells at 6.25 uL/well and the plate was shaken at 450 rpm at room temperature for 10 minutes. AlphaLISA 5× Lysis Buffer supplemented with 1× protease and phosphatase inhibitor was then added at 16 uL/well. The plate was sealed with an adherent cover and shaken at 4° C. at 600 rpm for 30 minutes. After this period of lysis, the plate was stored at −80° C.
When the 96-well plate containing M07e lysates was ready to be processed, the plate was brought to room temperature and 40 μl from each well was transferred to the wells of a PathScan Phospho-c-Kit (Tyr719) Sandwich ELISA plate (CST, Catalog #7298). The ELISA plate was sealed with an adherent cover and incubated for 2 hours at 37° C. Next, the wells were washed 4 times with the provided 1× Wash Buffer, and 100 uL/well of reconstituted Detection Antibody was added to each well, the plate sealed with an adherent cover, and incubated at 37° C. for 1 hour. The wash procedure was repeated and 100 uL/well of reconstituted HRP-Linked secondary antibody was added. The plate was sealed with an adherent cover and incubated at 37° C. for 1 hour. The wash procedure was repeated and 100 uL/well of TMB Substrate was added. The plate was incubated for 10 minutes at room temperature or until the positive reaction elicited a blue color in the appropriate wells. 100 uL/well of STOP solution was added and shaken gently for a few seconds a microplate reader or conventional spectrophotometer e.g., a Perkin Elmer Envision multimode plate reader, part #2105-0010.
An IC50 was calculated using a 4-parameter logistic nonlinear regression.

Chain of wild type c-kit (P10721 26-976): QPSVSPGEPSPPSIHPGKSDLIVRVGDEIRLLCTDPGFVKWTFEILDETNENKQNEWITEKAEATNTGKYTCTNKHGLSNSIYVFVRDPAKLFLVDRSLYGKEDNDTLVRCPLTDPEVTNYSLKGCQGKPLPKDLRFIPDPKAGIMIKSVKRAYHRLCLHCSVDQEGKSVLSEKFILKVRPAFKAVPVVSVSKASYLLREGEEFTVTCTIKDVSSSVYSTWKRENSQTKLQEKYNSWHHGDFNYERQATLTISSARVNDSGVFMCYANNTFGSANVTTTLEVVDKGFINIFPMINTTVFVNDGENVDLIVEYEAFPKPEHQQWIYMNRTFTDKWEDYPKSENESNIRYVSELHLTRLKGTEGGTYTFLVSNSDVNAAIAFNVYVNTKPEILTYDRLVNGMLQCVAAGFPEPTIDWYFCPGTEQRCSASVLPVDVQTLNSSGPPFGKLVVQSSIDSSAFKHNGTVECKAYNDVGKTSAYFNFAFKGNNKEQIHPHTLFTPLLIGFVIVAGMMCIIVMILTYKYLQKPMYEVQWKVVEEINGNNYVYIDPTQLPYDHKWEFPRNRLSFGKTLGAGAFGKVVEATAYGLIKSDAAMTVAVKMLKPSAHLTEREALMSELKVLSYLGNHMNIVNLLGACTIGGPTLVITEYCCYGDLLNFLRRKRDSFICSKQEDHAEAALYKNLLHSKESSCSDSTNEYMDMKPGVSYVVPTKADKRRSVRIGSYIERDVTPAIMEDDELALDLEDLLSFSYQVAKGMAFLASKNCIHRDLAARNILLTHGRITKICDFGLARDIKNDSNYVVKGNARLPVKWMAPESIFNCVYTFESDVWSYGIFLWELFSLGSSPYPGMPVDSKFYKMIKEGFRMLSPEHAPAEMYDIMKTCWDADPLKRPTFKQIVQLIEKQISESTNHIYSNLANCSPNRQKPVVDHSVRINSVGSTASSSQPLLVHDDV

Row | Compound | IC50 [nM]
1 | COCCNc1ccn2ncc(C(=O)Nc3cc(-c4nnn(C5CC(F)(F)C5)n4)c(F)cc3C)c2c1 [Example 105, N-(5-(2-(3,3-difluorocyclobutyl)-2H-tetrazol-5-yl)-4-fluoro-2-methylphenyl)-5-((2-methoxyethyl)amino)pyrazolo[1,5-a]pyridine-3-carboxamide] | 3.5
2 | Cc1ccc(-c2nnn(C3CN(CC(F)(F)F)C3)n2)cc1NC(=O)c1cnn2ccccc12 [Example 196, N-(2-methyl-5-(2-(1-(2,2,2-trifluoroethyl)azetidin-3-yl)-2H-tetrazol-5-yl)phenyl)pyrazolo[1,5-a]pyridine-3-carboxamide] | 9.1
3 | Cc1ccc(-c2nnn(C3CC3)n2)cc1NC(=O)c1cnn2ccc(-c3cnn(CC(C)(C)O)c3)cc12 [Example 242, N-(5-(2-cyclopropyl-2H-tetrazol-5-yl)-2-methylphenyl)-5-(1-(2-hydroxy-2-methylpropyl)-1H-pyrazol-4-yl)pyrazolo[1,5-a]pyridine-3-carboxamide] | 0.5
4 | O=C(Nc1cc(-c2nnn(CC34COC(C3)C4)n2)ccc1Cl)c1cnn2ccccc12 [Example 18, N-(5-(2-((2-oxabicyclo[2.1.1]hexan-4-yl)methyl)-2H-tetrazol-5-yl)-2-chlorophenyl)pyrazolo[1,5-a]pyridine-3-carboxamide] | 29.6
5 | COCCNc1ccc2c(C(=O)Nc3cc(-c4nnn(C5CN(C(=O)OC)C5)n4)ccc3Cl)cnn2c1 [Example 164, Methyl 3-(5-(4-chloro-3-(6-((2-methoxyethyl)amino)pyrazolo[1,5-a]pyridine-3-carboxamido)phenyl)-2H-tetrazol-2-yl)azetidine-1-carboxylate] | 8
6 | COC(=O)N1CC(n2nnc(-c3ccc(C)c(NC(=O)c4cnn5ccc(N[C@H]6CCOC6)cc45)c3)n2)C1 [Example 136, methyl (S)-3-(5-(4-methyl-3-(5-((tetrahydrofuran-3-yl)amino)pyrazolo[1,5-a]pyridine-3-carboxamido)phenyl)-2H-tetrazol-2-yl)azetidine-1-carboxylate] | 76.2
7 | CCn1nnc(-c2ccc(Cl)c(NC(=O)c3cnn4ccc(-c5c(C)nn(C[C@H](C)O)c5C)cc34)c2)n1 [Example 253, (S)-N-(2-chloro-5-(2-ethyl-2H-tetrazol-5-yl)phenyl)-5-(1-(2-hydroxypropyl)-3,5-dimethyl-1H-pyrazol-4-yl)pyrazolo[1,5-a]pyridine-3-carboxamide] | 0.4
8 | CCn1nnc(-c2cc(NC(=O)c3cnn4ccc(-c5cn(C[C@H](O)COCCOC)nc5C)cc34)c(Cl)cc2F)n1 [Example 283, (S)—N-(2-chloro-5-(2-ethyl-2H-tetrazol-5-yl)-4-fluorophenyl)-5-(1-(2-hydroxy-3-(2-methoxyethoxy)propyl)-3-methyl-1H-pyrazol-4-yl)pyrazolo[1,5-a]pyridine-3-carboxamide] | 0.7
9 | Cc1ccc(-c2nnn(C3CN(S(C)(=O)=O)C3)n2)cc1NC(=O)c1cnn2ccc(CCC(C)(C)O)cc12 [Example 155, 5-(3-hydroxy-3-methylbutyl)-N-(2-methyl-5-(2-(1-(methylsulfonyl)azetidin-3-yl)-2H-tetrazol-5-yl)phenyl)pyrazolo[1,5-a]pyridine-3-carboxamide] | 55.9
10 | Cc1ccc(-c2nnn(C)n2)cc1NC(=O)c1cnn2cc(-c3cnn(CC(C)(C)O)c3)cc(F)c12 [Example 214, 4-fluoro-6-(1-(2-hydroxy-2-methylpropyl)-1H-pyrazol-4-yl)-N-(2-methyl-5-(2-methyl-2H-tetrazol-5-yl)phenyl)pyrazolo[1,5-a]pyridine-3-carboxamide] | 2.7
11 | CCNc1ccn2ncc(C(=O)Nc3cc(-c4nnn(C5CN(C(=O)OCC)C5)n4)ccc3C)c2c1 [Example 130, ethyl 3-(5-(3-(5-(ethylamino)pyrazolo[1,5-a]pyridine-3-carboxamido)-4-methylphenyl)-2H-tetrazol-2-yl)azetidine-1-carboxylate] | 34.7
12 | Cc1ccc(-c2nnn(C3CC3)n2)cc1NC(=O)c1cnn2ccc(-c3cnn(C[C@H]4CNCCO4)c3)cc12 [Example 229, (R)-N-(5-(2-cyclopropyl-2H-tetrazol-5-yl)-2-methylphenyl)-5-(1-(morpholin-2-ylmethyl)-1H-pyrazol-4-yl)pyrazolo[1,5-a]pyridine-3-carboxamide] | 0.7
13 | Cc1ccc(-c2nnn(C)n2)cc1NC(=O)c1cnn2ccc(-c3cnn(CCCS(C)(=N)=O)c3)cc12 (stereo not shown) [Example 232, N-(2-methyl-5-(2-methyl-2H-tetrazol-5-yl)phenyl)-5-(1-(3-(S-methylsulfonimidoyl)propyl)-1H-pyrazol-4-yl)pyrazolo[1,5-a]pyridine-3-carboxamide] | 26
14 | Cc1cc(C)c(-c2nnn(CCC(C)(O)C(F)(F)F)n2)cc1NC(=O)c1cnn2ccccc12 (stereo not shown) [Example 36, N-(2,4-dimethyl-5-(2-(4,4,4-trifluoro-3-hydroxy-3-methylbutyl)-2H-tetrazol-5-yl)phenyl)pyrazolo[1,5-a]pyridine-3-carboxamide] | 8.5
15 | Cc1ccc(-c2nnn(C3CN(S(=O)(=O)C4CCOC4)C3)n2)cc1NC(=O)c1cnn2ccccc12 (stereo not shown) [Example 175, N-(2-methyl-5-(2-(1-((tetrahydrofuran-3-yl)sulfonyl)azetidin-3-yl)-2H-tetrazol-5-yl)phenyl)pyrazolo[1,5-a]pyridine-3-carboxamide] | 77.8
16 | Cc1ccc(-n2nnc([C@H]3CC3(F)F)n2)cc1NC(=O)c1cnn2ccc(-c3cnn(CCO)c3)cc12 (single isomer, unassigned) [Example 211, (R)-N-(5-(5-(2,2-difluorocyclopropyl)-2H-tetrazol-2-yl)-2-methylphenyl)-5-(1-(2-hydroxyethyl)-1H-pyrazol-4-yl)pyrazolo[1,5-a]pyridine-3-carboxamide or (S)-N-(5-(5-(2,2-difluorocyclopropyl)-2H-tetrazol-2-yl)-2-methylphenyl)-5-(1-(2-hydroxyethyl)-1H-pyrazol-4-yl)pyrazolo[1,5-a]pyridine-3-carboxamide] | 2.6
17 | O=C(Nc1cc(-c2nnn(C3CC(F)(F)C3)n2)ccc1Cl)c1cnn2ccc(N3CCOCC3)cc12 [Example 169, N-(2-chloro-5-(2-(3,3-difluorocyclobutyl)-2H-tetrazol-5-yl)phenyl)-5-morpholinopyrazolo[1,5-a]pyridine-3-carboxamide] | 4.7
18 | Cc1cc(F)c(-c2nnn(C3CC3)n2)cc1NC(=O)c1cnn2ccc(-c3c(C)nn(C[C@H](C)O)c3C)cc12 [Example 254, (S)-N-(5-(2-cyclopropyl-2H-tetrazol-5-yl)-4-fluoro-2-methylphenyl)-5-(1-(2-hydroxypropyl)-3,5-dimethyl-1H-pyrazol-4-yl)pyrazolo[1,5-a]pyridine-3-carboxamide] | 0.4
19 | Cc1ccc(-c2nnn([C@H]3C[C@H](C(F)(F)F)C3)n2)cc1NC(=O)c1cnn2ccc(NCCO)cc12 [Example 121, 5-((2-hydroxyethyl)amino)-N-(2-methyl-5-(2-((1r,3r)-3-(trifluoromethyl)cyclobutyl)-2H-tetrazol-5-yl)phenyl)pyrazolo[1,5-a]pyridine-3-carboxamide or 5-((2-hydroxyethyl)amino)-N-(2-methyl-5-(2-((1s,3s)-3-(trifluoromethyl)cyclobutyl)-2H-tetrazol-5-yl)phenyl)pyrazolo[1,5-a]pyridine-3-carboxamide] | 11.9
20 | COC(=O)N1CC(n2nnc(-c3ccc(C)c(NC(=O)c4cnn5ccc(N6CCC(F)(F)C6)cc45)c3)n2)C1 [Example 67, methyl 3-(5-(3-(5-(3,3-difluoropyrrolidin-1-yl)pyrazolo[1,5-a]pyridine-3-carboxamido)-4-methylphenyl)-2H-tetrazol-2-yl)azetidine-1-carboxylate] | 22.7
21 | Cc1cc(F)c(-c2nnn(C3CC3)n2)cc1NC(=O)c1cnn2cc(F)c(-c3cn(CC(C)(C)O)nc3C)cc12 [Example 247, N-(5-(2-cyclopropyl-2H-tetrazol-5-yl)-4-fluoro-2-methylphenyl)-6-fluoro-5-(1-(2-hydroxy-2-methylpropyl)-3-methyl-1H-pyrazol-4-yl)pyrazolo[1,5-a]pyridine-3-carboxamide] | 0.5
22 | CCOC(=O)N1CC(n2nnc(-c3ccc(C)c(NC(=O)c4cnn5ccc(N6CCOCC6)cc45)c3)n2)C1 [Example 77, ethyl 3-(5-(4-methyl-3-(5-morpholinopyrazolo[1,5-a]pyridine-3-carboxamido)phenyl)-2H-tetrazol-2-yl)azetidine-1-carboxylate] | 60.7
